Experimental data: patent US20130035390A1, “TREATMENT OF MULTIPLE SCLEROSIS” (Ramot at Tel-Aviv University Ltd., priority 2010, published 2013)

Columns and labels:
phospho-Erk = test: Western blotting of splenocyte lysates: phospho-Erk; assay type: in vivo, mice; settings: FTS 20 mg/kg/day i.p., GA 15 mg/kg/day s.c.
From the text: (§1) On day 16 post EAE-induction, the brains and splenocytes of the mice (n=4 per each group) were homogenized and their lysates were subjected to sodium dodecyl sulfate-olyacrylamide gel electrophoresis followed by western blotting, as described (Goldberg and Kloog, 2006), with one of the following antibodies: pan-RAS (Ab-3; Calbiochem, San Diego, Calif.), anti-CD3 Ab (AbD serotec, Oxford, UK), anti-ERK (Santa Cruz Biotechnology, CA. USA), anti phospho-ERK (Sigma, USA), anti-tubulin Ab and anti-Foxp3 Ab (eBioScience, San Diego, Calif.). Protein bands were visualized by enhanced chemiluminescence (ECL) kit (Amersham Pharmacia Biotech, Arlington Heights, Ill.) and quantified by densitometry with Image EZQuant-Gel software (Copyright©2005, EZQuant Ltd). Lysates were used to determine Ras-GTP by the glutathione S-transferase (GST)-Ras-binding domain pulldown assay, and this was followed by western blotting with anti pan-Ras Ab.

Ras = test: Western blotting of splenocyte lysates: Ras; assay type: in vivo, mice; settings: FTS 20 mg/kg/day i.p., GA 15 mg/kg/day s.c.
From the text: as §1

Foxp3 = test: Western blotting of splenocyte lysates: Foxp3; assay type: in vivo, mice; settings: day 17 post EAE-induction; FTS 20 mg/kg/day i.p., GA 15 mg/kg/day s.c.
From the text: as §1

EAE mice = test: Clinical signs of MOG-induced EAE, late treatment from day 9; assay type: in vivo, C57bl/6 mice; settings: for percent of the maximal response: score difference relative to control score 2.4
Experimental: Eight-week-old female C57bl/6 mice were purchased from Harlan. The mice were housed under standard conditions in top filtered cages. Mice were fed a regular diet and given acidified water without antibiotics.
Disease was induced by immunization with the peptide encompassing amino acids 35-55 of rat MOG synthesis (Anaspec, Fremont, Calif.). Mice were injected subcutaneously (s.c.) at the flank, with a 200 μl emulsion containing 300 μg of MOG in complete Freund's adjuvant (CFA) enriched with 500 μg Mycobacterium tuberculosis H37Ra (Difco Laboratories, Detroit, Mich.). Pertussis toxin (List biological laboratories, California, USA), […], was injected intra-peritoneally (i.p.) immediately after the MOG injection and then 48 h later. Mice were examined daily. EAE was scored as follows: 0, no abnormality; 1, mild limp tail weakness (floppy tail); 2, tail paralysis; 3, tail paralysis and hind leg paresis; 4, hind leg paralysis or mild forelimb weakness; 5, quadriplegia or moribund state; 6, death.
Briefly, FTS (as powder) was diluted in chloroform (35.8 mg/ml of FTS=0.1 M) and kept in aliquots. The content (280 μl) of one aliquot was evaporated under nitrogen and then dissolved in 40 μl absolute ethanol and 15 μl NaOH; 2.5 ml of PBS was subsequently added. Each mouse received 0.1 ml of this solution daily (0.4 mg/mouse which on a per unit weight basis equates to 20 mg/kg) intraperitoneally (i.p.), starting from day 9 of disease induction, just before the clinical onset of paralysis.
EAE was induced in C57bl/6 mice with MOG and drug treatment started on day 9 of disease induction. The animals were divided into four (4) groups.

[1] = system: infiltration and demyelination in the spinal cords of EAE mice; test: Histology of lumbar spinal cord (H&E, LFB); assay type: in vivo, C57bl/6 mice; settings: day 16 post EAE-induction; FTS 20 mg/kg/day i.p., GA 15 mg/kg/day s.c.
From the text: The lumbar part of the mice's spinal cord (n=8 mice for each group) was fixed in 4% paraformaldehyde (Electric Microscopy Science, PA, USA) and embedded in paraffin and cut in 4-μm-thick axial sections. Sections were stained with hematoxylin and eosin (H&E) and luxol fast blue (LFB) and then mounted in histomount medium (Invitrogen Corporation, CA, USA). Images were examined under a light microscope and captured with a NikonDS-5Mcamera (NikonInstech, Tokyo, Japan). Quantification of the inflammation and demyelination was conducted as previously described (Mi, et al., 2007). Briefly, to quantify inflammation H&E-stained nuclei were imaged, counted and percentage of stained cells per field were calculated. Similarly the percentage of regions with demyelination per field was estimated by counting the LFB-stained images. Imaging was aided by the use of Image-Pro Plus 5.1 software (MediaCybernetics, Silver, Spring, Md.).

[2] = system: lymphocytes from the spleens of EAE mice; test: Ex vivo BrdU proliferation response of EAE splenocytes to antigens and mitogens; assay type: cell-based; settings: in vivo FTS 20 mg/kg/day i.p., GA 15 mg/kg/day s.c.
Experimental: Pooled single cell suspension of spleens were obtained on […] post-EAE induction and assayed in vitro for their response to antigens and mitogens ([…], lipopolysacharide—LPS, and concanavalin A—ConA) by a proliferation assay. The assay was carried out by plating in each microculture well 2×10^4 cells in 0.1 ml of proliferation medium containing optimal concentration of antigens as follows: 25 μg/ml MOG, 50 μg/ml MOG, 20 μg/ml LPS or 1 μg/ml of ConA. The experiments were performed in triplicate in 96-well, flat-bottom, microtiter plates (Costar, Cambridge, USA). Cultures were incubated for 72 h in humidified atmosphere of 95% air and 5% CO2 at 37° C. Cell proliferation was determined by Colorimetric Bromodeoxyuridine (BrdU) Cell Proliferation kit (Calbiochem, Darmstadt, Germany) following manufacturer's instructions. In brief, 20 μl of BrdU labeling solution diluted 1:2000 in culture medium were added to each well for the last 18 h of culture. After removing the medium, cells were fixed, and anti-BrdU peroxidase working solution was added to each well and incubated for one (1) hour at room temperature. Following several washes, substrate solution was added, color was developed, and absorbance was measured with a microplate reader at 450 nm. The stimulation index (S.I.) was calculated as follows: the mean absorbance of cells culture in the presence of antigen divided by the mean absorbance of cells in the absence of antigen.
Lymphocytes were obtained from the spleens of mice on day 16 post immunization with MOG and subjected to ex vivo BrdU incorporation proliferation assays. […] The cells, obtained from the four groups described above, were stimulated with various mitogens ex vivo for 48 h.

[3] = system: EAE lesions and blood-brain barrier disruption in the spinal cord; test: MR imaging of spinal cord (L1-S3) of EAE mice, T2-map and Gd-DTPA T1-weighted; assay type: in vivo, C57bl/6 mice; settings: day 14 post EAE-induction; FTS 20 mg/kg/day i.p., GA 15 mg/kg/day s.c.; FIG. 2C
Experimental: The treatment effect was evaluated by MRI experiments which were conducted on day 14 after EAE-induction. […] During the MRI scanning, mice were anesthetized with isofluorane (3% for induction, 1-2% for maintenance) mixed with compressed air (1 l/min) delivered through a nasal mask. Once anesthetized, the animals were placed in a body-holder to assure reproducible positioning inside the magnet. Respiration rate was monitored and maintained throughout the experimental period at 60-80 breaths/min. MRI experiments were performed on a 7T Bruker scanner (70/30 USR Bruker BioSpec, Germany) equipped with a gradient coil system capable of producing pulse gradients of up to 400 mT/m in each of the three directions. […]
T2-map MRI was used to deliberate the EAE lesions (demyelination) in the mice's spinal cords. Lesion volume was calculated from the T2-map MR images using the MATLAB® image processing toolbox. […] From that value was then subtracted the value of a normal appearing parallel tissue in the same slice which was measured in the same way as described above. […]
The gadolinium enhancement obtained from T1-weighted MRI reflects the infusate distribution in the mice's blood-brain barrier within the spinal cord. Thus, the volume (in mm^3) of infusate distribution was calculated from the T1-weighted MRI. […] The volume in the regions of interest was counted and accumulated for each mouse.

[4] = 0-6 scale, FTS 20 mg/kg/day i.p., GA 100 mg/kg/day s.c., daily from day 9, FIG. 1A
[5] = Example II: 0-6 scale, FTS 60 mg/kg/day p.o., GA 15 mg/kg/day s.c., FIG. 7A
[6] = Example II: FTS 60 mg/kg/day p.o., GA 15 mg/kg/day s.c., daily from day 9
[7] = FTS 20 mg/kg/day i.p., GA 15 mg/kg/day s.c.
[8] = FTS 20 mg/kg/day i.p., GA 15 mg/kg/day s.c., daily from day 9, four experiments
[9] = FTS 20 mg/kg/day i.p., GA 100 mg/kg/day s.c., daily from day 9, three experiments

Molecule | decrease in phospho-Erk level in splenocytes vs. control (phospho-Erk) | decrease in Ras level in splenocytes vs. control (Ras) | increase of Foxp3 level in splenocytes vs. control (Foxp3) | maximal average clinical score (EAE mice; [4]) | maximal average clinical score (EAE mice; [5]) | animals that developed clinical signs of EAE (EAE mice; [6]) [%] | clinical score as control score (2.4) minus treated score (EAE mice; [7]) | animals that developed clinical signs of EAE (EAE mice; [8]) [%] | animals that developed clinical signs of EAE (EAE mice; [9]) [%] | percent of the maximal response (EAE mice; [7]) [%] | decrease in regions of demyelination (LFB) vs. control [1] | reduction of regions with inflammatory infiltrates (H&E nuclei counts) vs. control [1] | decrease in lymphocyte proliferation vs. control ([2]; stimulated with 25 μg/ml MOG) | decrease in lymphocyte proliferation vs. control ([2]; stimulated with 50 μg/ml MOG) | decrease in phospho-Erk level in splenocytes vs. GA alone (phospho-Erk) | decrease in total volume of T2-map lesions per mouse vs. control [3] | maximal average clinical score (EAE mice; 0-6 scale, FTS 20 mg/kg/day i.p., GA 15 mg/kg/day s.c., daily from day 9, FIG. 1B) | maximal average clinical score (EAE mice; Example III: 0-6 scale, FTS 40 mg/kg/day s.c. (dissolved in GA in the combination), GA 15 mg/kg/day s.c., FIG. 7B) | animals that developed clinical signs of EAE (EAE mice; Example III: FTS 40 mg/kg/day s.c. (dissolved in GA in the combination), GA 15 mg/kg/day s.c., daily from day 9) [%]
L-glutamic acid polymer with L-alanine, L-lysine and L-tyrosine, acetate (salt) [GA] | does not reduce significantly | does not reduce significantly | No significant elevation | 1.4±0.43 | 1.3±0.213 | 70 | 0.02±0.05 | 77.5 | 70.3 | 2 | 48.97%±6.78% | 33.12%±6.98% | 43.19%±6.35% | 41.22%±6.12% |  |  |  |  | 
CC(C)=CCC/C(C)=C/CC/C(C)=C/CSc1ccccc1C(=O)O [FTS, S-trans,trans-farnesylthiosalicylic acid] | 50.18%±9.1% |  | No significant elevation | 1.07±0.6 | 1±0.33 | 60 | 0.25±0.11 | 82.5 | 60.7 | 25 | 59.18±10.6% | 28.44%±11.2% | 17.85%±5.34% | 29.9%±9.18% | 51.38%±5.6% | 30.1%±7% | 2.15±0.45 | 1.72±0.45 | 90
